Patent US12416052B2, “Capturing, concentrating, and detecting microbes in a sample using magnetic ionic liquids and recombinase polymerase amplification” (priority 2019, dated 2025)

Key:
Experiment in all cases: MIL-based whole-cell extraction
[1] = system: P. carotovorum pv. carotovorum; design: species or system Pectobacterium carotovorum; details: EF determined using Columbia Agar
Description: (§1) A universal schematic for MIL-based cell extraction is depicted in FIG. 7B. A 1 mL volume of diluted cell suspension was added to a flat-bottomed 4-mL screw cap glass vial. Fifteen microliters of either the Ni(II) or Dy(III) MIL was added and dispersed into microdroplets by vortex agitation for 30 s. The aqueous phase was decanted following dispersive extraction, and the MIL was subjected to a brief wash step using 1 mL of nuclease-free water (Integrated DNA Technologies, Coralville, IA, USA) to ensure adequate removal of loosely or incidentally bound cells. […]
(§2) Following back-extraction, aliquots of the cell-enriched back-extraction medium were serially diluted in 0.1% peptone water and a 10 μL aliquot of each dilution was applied to a separate lane on square plates containing an appropriate agar medium. […] Colonies were counted and colony forming units (CFU) were determined. The enrichment factor (EF) for MIL-based extraction was calculated using Equation 1, where CMIL represents the concentration of bacteria in suspension following extraction using the MIL and CS is the initial concentration of bacteria in the sample.

K. aerogenes ATCC 29940 = system: K. aerogenes ATCC 29940; design: species or system Klebsiella aerogenes; details: EF determined using Tryptic Soy Agar
Description: as §1, §2

E. coli O157:H7 N192-6-1 = system: E. coli O157:H7 N192-6-1; design: species or system Escherichia coli; details: 1×10^6 CFU mL^−1 in TSB, 15 μL MIL
Description: (§3) A universal schematic for MIL-based cell extraction is depicted in FIG. 7B. A 1 mL volume of diluted cell suspension was added to a flat-bottomed 4-mL screw cap glass vial. Fifteen microliters of either the Ni(II) or Dy(III) MIL was added and dispersed into microdroplets by vortex agitation for 30 s. The aqueous phase was decanted following dispersive extraction, and the MIL was subjected to a brief wash step using 1 mL of nuclease-free water (Integrated DNA Technologies, Coralville, IA, USA) to ensure adequate removal of loosely or incidentally bound cells. After washing, release of viable cells from the MIL extraction phase was carried out using a “back-extraction” step accomplished through addition of 1 mL of an ionically-rich nutritive medium comprised of 20 g L^−1 tryptone and 10 g L^−1 NaCl, followed by a 120 s vortex step. After back-extraction, aliquots of the cell-enriched back-extraction medium were enumerated using the track dilution method using 100×100 mm square, gridded TSA, BSA, CA or VRBGA plates.
(§4) Following back-extraction, aliquots of the cell-enriched back-extraction medium were serially diluted in 0.1% peptone water and a 10 μL aliquot of each dilution was applied to a separate lane on square plates containing an appropriate agar medium. The plates were then tilted at an approximately 80° angle for 15 min to allow the droplets to travel toward the opposite end of the plate. The plates were incubated for 24 h at 37° C. (TSA, VRBGA), for 48 h at 37° C. (BSA) or for 24 h at 37° C. (CA). Colonies were counted and colony forming units (CFU) were determined. The enrichment factor (EF) for MIL-based extraction was calculated using Equation 1, where CMIL represents the concentration of bacteria in suspension following extraction using the MIL and CS is the initial concentration of bacteria in the sample.
(§5) In order to explore the broader utility of our approach, evaluation of additional cell types is needed. We began this extended evaluation of the Ni(II) MIL with seven representative DNA subgroups of Salmonella and eight strains of E. coli O157:H7. Briefly, a 1 mL aliquot of TSB was inoculated with 1×10^6 CFU mL^−1 of bacteria, and spiked with 15 μL of the Ni(II) MIL. MIL-based extraction was performed and 10 μL aliquots of the back-extraction solution were enumerated using TSA and BSA plates (Salmonella) or TSA plates (E. coli O157:H7). […] We later determined that VRBGA was a suitable common medium for this purpose and used this in our statistical analysis. Average CFU counts were compared to standards that were not exposed to the Ni(II) MIL. Enrichment factors were calculated for Salmonella on both non-selective (TSA) and selective agars (BSA) and for E. coli O157:H7 on non-selective agar (TSA). […] Note: As BSA is a Salmonella-specific agar E. coli O157:H7 was not plated to BSA in this example.

E. coli O157:H7 N886-71 = system: E. coli O157:H7 N886-71; design: species or system Escherichia coli; details: 1×10^6 CFU mL^−1 in TSB, 15 μL MIL
Description: as §3, §4, §5

E. coli O157:H7 N549-3-1 = system: E. coli O157:H7 N549-3-1; design: species or system Escherichia coli; details: 1×10^6 CFU mL^−1 in TSB, 15 μL MIL
Description: as §3, §4, §5

E. coli O157:H7 N317-3-1 = system: E. coli O157:H7 N317-3-1; design: species or system Escherichia coli; details: 1×10^6 CFU mL^−1 in TSB, 15 μL MIL
Description: as §3, §4, §5

E. coli O157:H7 N192-5-1 = system: E. coli O157:H7 N192-5-1; design: species or system Escherichia coli; details: 1×10^6 CFU mL^−1 in TSB, 15 μL MIL
Description: as §3, §4, §5

E. coli O157:H7 N405-5-8 = system: E. coli O157:H7 N405-5-8; design: species or system Escherichia coli; details: 1×10^6 CFU mL^−1 in TSB, 15 μL MIL
Description: as §3, §4, §5

E. coli O157:H7 N336-4-1 = system: E. coli O157:H7 N336-4-1; design: species or system Escherichia coli; details: 1×10^6 CFU mL^−1 in TSB, 15 μL MIL
Description: as §3, §4, §5

E. coli O157:H7 N366-2-2 = system: E. coli O157:H7 N366-2-2; design: species or system Escherichia coli; details: 1×10^6 CFU mL^−1 in TSB, 15 μL MIL
Description: as §3, §4, §5

C. sakazakii 01088P = system: C. sakazakii 01088P; design: species or system Cronobacter sakazakii; details: EF determined using Tryptic Soy Agar
Description: as §1, §2

E. amylovora Ea935 = system: E. amylovora Ea935; design: species or system Erwinia amylovora; details: EF determined using Columbia Agar
Description: as §1, §2

S. bongori = system: S. bongori; design: species or system Salmonella bongori; details: 1×10^6 CFU mL^−1 in TSB, 15 μL MIL
Description: as §1, §2
In order to explore the broader utility of our approach, evaluation of additional cell types is needed. […] We later determined that VRBGA was a suitable common medium for this purpose and used this in our statistical analysis. […]

P. eucalypti 299R = system: P. eucalypti 299R; design: species or system Pantoea eucalypti; details: EF determined using Columbia Agar
Description: as §1, §2

[2] = system: S. enterica subsp. salamae; design: species or system Salmonella enterica; details: 1×10^6 CFU mL^−1 in TSB, 15 μL MIL
Description: as §3, §4, §5

[3] = system: S. enterica subsp. indica; design: species or system Salmonella enterica; details: 1×10^6 CFU mL^−1 in TSB, 15 μL MIL
Description: as §3, §4, §5

[4] = system: S. enterica subsp. houtenae; design: species or system Salmonella enterica; details: 1×10^6 CFU mL^−1 in TSB, 15 μL MIL
Description: as §3, §4, §5

Compound: CCCCCCCCCCCCCC[P+](CCCCCC)(CCCCCC)CCCCCC.O=C([CH-]C(=O)C(F)(F)F)C(F)(F)F.O=C([CH-]C(=O)C(F)(F)F)C(F)(F)F.O=C([CH-]C(=O)C(F)(F)F)C(F)(F)F.[Ni+2] [Ni(II) MIL, [P66614^+][Ni(hfacac)3^−]]
- Enrichment Factor [1]: 24
- Enrichment Factor (K. aerogenes ATCC 29940): 71
- Enrichment Factor (TSA) (E. coli O157:H7 N192-6-1): 9
- Enrichment Factor (TSA) (E. coli O157:H7 N886-71): 4
- Enrichment Factor (TSA) (E. coli O157:H7 N549-3-1): 8
- Enrichment Factor (TSA) (E. coli O157:H7 N317-3-1): 4
- Enrichment Factor (TSA) (E. coli O157:H7 N192-5-1): 7
- Enrichment Factor (TSA) (E. coli O157:H7 N405-5-8): 2
- Enrichment Factor (TSA) (E. coli O157:H7 N336-4-1): 3
- Enrichment Factor (TSA) (E. coli O157:H7 N366-2-2): 4
- Enrichment Factor (C. sakazakii 01088P): 12
- Enrichment Factor (E. amylovora Ea935): 10
- Enrichment Factor (BSA) (S. bongori): 4
- Enrichment Factor (TSA) (S. bongori): 4
- Enrichment Factor (P. eucalypti 299R): 169
- Enrichment Factor (BSA) [2]: 9
- Enrichment Factor (TSA) [2]: 12
- Enrichment Factor (BSA) [3]: 4
- Enrichment Factor (TSA) [3]: 3
- Enrichment Factor (BSA) [4]: 8
- Enrichment Factor (TSA) [4]: 8
